According to US20230272399A1, “INHIBITORS OF LINE1 AND USES THEREOF” (T-ONE THERAPEUTICS S.R.L., priority 2020, published 2023):
Each block holds one compound with its values, some of them ahead of it. *1 amine or outer side, *2 acyl side, *3 side chain or, on linkers, in order; H or OH if unused. Where a SMILES comes first, the peptide text is derived from it. Bridges are numbered along the chain shown (N, C = ends). Roman numbers before positions name the chains, in order. [ ]: non-standard residue; d: D form. Actinocin(9to1) = Cc1c2oc3c(C)ccc(C(=O)[*:1])c3nc-2c(C(=O)[*:2])c(N)c1=O; NMeV = CN[C@H](C(=O)O)C(C)C; Sar = CNCC(=O)O

Tests used:
[1] = tested on: LINE1 RNAs; assay: LINE1 RNA FISH in naïve CD4+ T-cells treated with 3TC retrotranscriptase inhibitor; type: cell-based, human; settings: versus vehicle (DMSO)
Description: Briefly, antisense biotinylated riboprobes for LINE1, AluY and HERVK were in vitro transcribed using MAXIscript T7 transcription kit (Invitrogen) and Biotin RNA labeling mix (Roche). 50-100 ng of antisense biotinylated riboprobes per experiment were used. 3% paraformaldehyde (PFA) fixed T-cells were washed with 0.05% Triton-X-100 in PBS, permeabilized with 0.5% Triton-X-100 in PBS and maintained in 20% glycerol/PBS.
To quantify mean fluorescence intensity of RNA signal in 3D reconstructed nuclei, images were analyzed with NIS-Elements Software (by Nikon). In the “General Analysis” a mask on DAPI signals was generated to identify single nuclei, and then a “3D measurement” of RNA signals in every nucleus was performed. To measure the colocalization of RNA and histone mark signals was used ImageJ Software to control the Pearson Correlation through the command “Colocalization Threshold” for every nucleus.

[2] = biological target: mTORC1 (Homo sapiens, UniProt P42345+P62942); assay: LINE1 expression in memory CD4+ T-cells from blood of patients treated with mTORC1 inhibitors; settings: memory CD4+ T-cells from blood of kidney transplanted patients treated with Everolimus, versus healthy individuals
[3] = tested on: LINE1 RNAs; assay: Actinomycin D treatment of quiescent naïve CD4+ T-cells, LINE1 expression by qRT-PCR; type: cell-based, human; settings: Actinomycin D 5 μg/mL, 16 h
Description: Quiescent naïve CD4^+ T-cells were treated for 16 h with Actinomycin D 5 μg/mL (Merck; cat. num. A9415) as reported in^68. TCR signaling pathway inhibition was performed using the following immunosuppressive drugs: Rapamycin (100 nM; Merck; cat. num. R8781) for mTORC1, Ciclosporin A (0,5 μg/mL; Merck; cat. num. C3662) for Calcineurin pathway, Dexamethasone (1 μM; Merck; cat. num. D4902) for NF-κB pathway. Quiescent naïve CD4^+ T-cells were pretreated for 2 hours with the overmentioned drugs, then stimulated with Dynabeads Human T-activator anti-CD3/anti-CD28 beads in Th1 medium, in the presence of the different inhibitors; T-cells were collected 2, 4, 8 h post activation. Otherwise, naïve CD4^+ T-cells activated and cultured in Th1 medium for 72 h were treated for 48 h with the drugs. Treated cells were controlled for their vitality and treatment efficacy was assessed.

SMILES: Nc1ccn([C@@H]2CS[C@H](CO)O2)c(=O)n1 [3TC]
staining of LINE1 RNAs (RNA-FISH) [1]: completely unchanged

LINE1 RNAs expression [2]: re-express LINE1 RNAs
SMILES: CO[C@H]1C[C@@H]2CC[C@@H](C)[C@@](O)(O2)C(=O)C(=O)N2CCCC[C@H]2C(=O)O[C@H]([C@H](C)C[C@@H]2CC[C@@H](OCCO)[C@H](OC)C2)CC(=O)[C@H](C)/C=C(\C)[C@@H](O)[C@@H](OC)C(=O)[C@H](C)C[C@H](C)/C=C/C=C/C=C/1C [Everolimus]

SMILES: Cc1c2oc3c(C)ccc(C(=O)N[C@@H]4C(=O)N[C@H](C(C)C)C(=O)N5CCC[C@H]5C(=O)N(C)CC(=O)N(C)[C@@H](C(C)C)C(=O)O[C@@H]4C)c3nc-2c(C(=O)N[C@@H]2C(=O)N[C@H](C(C)C)C(=O)N3CCC[C@H]3C(=O)N(C)CC(=O)N(C)[C@@H](C(C)C)C(=O)O[C@@H]2C)c(N)c1=O [actinomycin D, Actinomycin D] (I: T[dV]P[Sar][NMeV] / II: T[dV]P[Sar][NMeV]; ester I:1-I:C, II:1-II:C; linker I:N-II:N via Actinocin(9to1))
LINE1 RNAs levels [3]: moderately affect
